The text below walks through data of ChEMBL document CHEMBL4831493 (Eur J Med Chem, 2021).

Structures are written as SMILES. Activity calls are given as the source filed them. No cut-off for these calls is given here.

In one series the target is Acetylcholinesterase (Electrophorus electricus, UniProt O42275). Nature of the series: Inhibition of electric eel recombinant AChE preincubated for 1 min in presence of DNTB followed by addition of acetylthiocholine iodide substrate and measured after 20 mins by Ellman's method.
Acetylcholinesterase, sequence (O42275 whole entry): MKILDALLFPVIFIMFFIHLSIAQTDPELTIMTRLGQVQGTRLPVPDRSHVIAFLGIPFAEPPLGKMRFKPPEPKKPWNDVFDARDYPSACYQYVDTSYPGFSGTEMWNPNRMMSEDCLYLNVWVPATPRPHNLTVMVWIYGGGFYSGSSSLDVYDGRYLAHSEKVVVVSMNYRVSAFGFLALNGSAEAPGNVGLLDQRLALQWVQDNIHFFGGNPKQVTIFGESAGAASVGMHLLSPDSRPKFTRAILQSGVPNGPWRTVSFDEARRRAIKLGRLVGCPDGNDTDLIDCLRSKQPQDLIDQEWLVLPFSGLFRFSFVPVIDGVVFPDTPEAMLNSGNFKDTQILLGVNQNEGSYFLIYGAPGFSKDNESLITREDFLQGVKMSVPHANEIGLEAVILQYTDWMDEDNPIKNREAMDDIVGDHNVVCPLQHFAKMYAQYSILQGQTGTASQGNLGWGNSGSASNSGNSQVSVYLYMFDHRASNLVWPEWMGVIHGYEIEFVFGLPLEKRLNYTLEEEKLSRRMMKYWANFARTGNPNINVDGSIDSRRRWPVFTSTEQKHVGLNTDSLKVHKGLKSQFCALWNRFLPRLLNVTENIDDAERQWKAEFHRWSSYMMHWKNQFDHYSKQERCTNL
The target in series [1] is Cyclin-dependent kinase 1 (Homo sapiens) (UniProt P06493). Nature of the series: Inhibition of CDK1 (unknown origin) at 0.3 uM.
Cyclin-dependent kinase 1 (Homo sapiens), sequence (P06493 whole entry, looked up): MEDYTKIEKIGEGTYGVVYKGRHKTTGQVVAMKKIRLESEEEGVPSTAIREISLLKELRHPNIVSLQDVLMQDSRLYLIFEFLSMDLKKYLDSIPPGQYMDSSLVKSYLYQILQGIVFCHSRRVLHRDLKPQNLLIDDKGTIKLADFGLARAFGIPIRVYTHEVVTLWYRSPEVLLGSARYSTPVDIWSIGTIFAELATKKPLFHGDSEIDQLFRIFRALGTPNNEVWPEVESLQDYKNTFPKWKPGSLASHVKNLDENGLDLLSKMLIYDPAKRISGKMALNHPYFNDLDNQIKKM
The target in series [2] is Cyclin-dependent kinase 4 (Homo sapiens) (UniProt P11802). Nature of the series: Inhibition of CDK4 (unknown origin) at 0.3 uM.
Cyclin-dependent kinase 4 (Homo sapiens), sequence (P11802 whole entry): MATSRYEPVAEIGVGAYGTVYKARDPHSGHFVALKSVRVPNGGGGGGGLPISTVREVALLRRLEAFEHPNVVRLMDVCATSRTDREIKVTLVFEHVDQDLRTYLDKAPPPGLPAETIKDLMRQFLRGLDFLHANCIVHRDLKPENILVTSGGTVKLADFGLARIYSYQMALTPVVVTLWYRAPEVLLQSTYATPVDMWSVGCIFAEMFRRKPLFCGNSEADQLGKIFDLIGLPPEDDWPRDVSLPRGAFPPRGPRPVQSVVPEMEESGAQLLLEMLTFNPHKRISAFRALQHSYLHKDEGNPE
Series [3] concerns the target Cyclin-dependent kinase 6 (Homo sapiens) (UniProt Q00534). In words: Inhibition of CDK6 (unknown origin) at 0.3 uM.
For series [4], the target named is Cyclin-dependent kinase 7 (Homo sapiens) (UniProt P50613). Nature of the series: Inhibition of CDK7 (unknown origin) at 0.3 uM.
Cyclin-dependent kinase 7 (Homo sapiens), sequence (P50613 whole entry): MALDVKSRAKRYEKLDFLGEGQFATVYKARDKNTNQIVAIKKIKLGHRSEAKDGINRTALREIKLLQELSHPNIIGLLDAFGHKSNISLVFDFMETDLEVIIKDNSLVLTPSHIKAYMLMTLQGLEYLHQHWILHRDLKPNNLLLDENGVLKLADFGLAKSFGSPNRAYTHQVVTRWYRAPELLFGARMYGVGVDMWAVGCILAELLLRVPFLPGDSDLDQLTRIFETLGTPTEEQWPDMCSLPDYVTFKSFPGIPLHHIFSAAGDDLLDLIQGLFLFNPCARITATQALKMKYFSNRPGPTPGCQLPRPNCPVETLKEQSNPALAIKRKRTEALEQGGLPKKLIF
In series [5] the target is Cyclin-dependent kinase 9 (Homo sapiens) (UniProt P50750). Nature of the series: Inhibition of CDK9 (unknown origin) at 0.3 uM.
Cyclin-dependent kinase 9 (Homo sapiens), sequence (P50750 whole entry): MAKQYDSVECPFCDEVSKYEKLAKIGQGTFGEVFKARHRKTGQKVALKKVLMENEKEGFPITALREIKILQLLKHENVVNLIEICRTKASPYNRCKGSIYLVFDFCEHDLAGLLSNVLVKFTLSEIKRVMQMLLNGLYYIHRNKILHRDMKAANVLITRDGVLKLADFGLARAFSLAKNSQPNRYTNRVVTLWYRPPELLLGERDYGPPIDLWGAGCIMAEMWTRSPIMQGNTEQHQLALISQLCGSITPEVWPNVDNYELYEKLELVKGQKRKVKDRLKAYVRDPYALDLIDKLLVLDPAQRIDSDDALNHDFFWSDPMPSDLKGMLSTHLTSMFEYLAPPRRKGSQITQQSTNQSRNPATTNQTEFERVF
The target of series [6] is Mitogen-activated protein kinase 3 (Homo sapiens) (UniProt P27361). In words: Inhibition of ERK1 (unknown origin) at 0.3 uM.
Mitogen-activated protein kinase 3 (Homo sapiens), sequence (P27361 whole entry): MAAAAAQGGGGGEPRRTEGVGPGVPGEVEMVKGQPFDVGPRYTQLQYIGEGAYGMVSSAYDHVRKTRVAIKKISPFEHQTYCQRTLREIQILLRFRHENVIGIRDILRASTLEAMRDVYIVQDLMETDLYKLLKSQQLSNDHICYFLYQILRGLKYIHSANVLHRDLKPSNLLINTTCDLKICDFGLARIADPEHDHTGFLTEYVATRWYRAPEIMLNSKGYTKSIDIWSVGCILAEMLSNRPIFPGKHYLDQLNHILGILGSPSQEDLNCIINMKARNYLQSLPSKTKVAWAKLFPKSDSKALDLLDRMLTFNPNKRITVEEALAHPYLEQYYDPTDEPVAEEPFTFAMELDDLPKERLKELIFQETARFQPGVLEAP
The target in series [7] is Mitogen-activated protein kinase 1 (Homo sapiens) (UniProt P28482). In words: Inhibition of ERK2 (unknown origin) at 0.3 uM.
Mitogen-activated protein kinase 1 (Homo sapiens), sequence (P28482 whole entry): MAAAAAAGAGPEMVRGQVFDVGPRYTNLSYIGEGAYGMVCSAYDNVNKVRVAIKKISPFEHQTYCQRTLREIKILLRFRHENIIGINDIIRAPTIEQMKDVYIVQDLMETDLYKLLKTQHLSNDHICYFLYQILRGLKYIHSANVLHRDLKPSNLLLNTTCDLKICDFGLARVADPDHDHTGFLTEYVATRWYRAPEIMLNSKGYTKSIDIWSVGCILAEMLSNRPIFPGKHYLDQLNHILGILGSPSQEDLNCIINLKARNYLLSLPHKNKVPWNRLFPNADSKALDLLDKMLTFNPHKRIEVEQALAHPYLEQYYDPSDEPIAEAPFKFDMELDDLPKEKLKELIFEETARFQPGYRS
For series [8], the target named is Mitogen-activated protein kinase 14 (Homo sapiens) (UniProt Q16539). In words: Inhibition of p38alpha (unknown origin) at 0.3 uM.
Mitogen-activated protein kinase 14 (Homo sapiens), sequence (Q16539 whole entry): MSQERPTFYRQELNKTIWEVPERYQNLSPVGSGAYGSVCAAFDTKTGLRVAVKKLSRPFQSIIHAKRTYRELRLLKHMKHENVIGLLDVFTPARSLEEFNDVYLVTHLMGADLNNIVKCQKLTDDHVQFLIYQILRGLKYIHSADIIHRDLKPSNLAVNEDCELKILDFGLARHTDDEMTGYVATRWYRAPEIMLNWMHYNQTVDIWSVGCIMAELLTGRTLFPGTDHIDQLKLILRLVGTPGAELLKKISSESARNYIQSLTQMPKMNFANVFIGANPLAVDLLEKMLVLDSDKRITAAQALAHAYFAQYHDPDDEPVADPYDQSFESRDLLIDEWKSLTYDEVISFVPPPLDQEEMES
For series [9], the target named is Mitogen-activated protein kinase 12 (Homo sapiens) (UniProt P53778). In words: Inhibition of p38gamma (unknown origin) at 0.3 uM.
Mitogen-activated protein kinase 12 (Homo sapiens), sequence (P53778 whole entry): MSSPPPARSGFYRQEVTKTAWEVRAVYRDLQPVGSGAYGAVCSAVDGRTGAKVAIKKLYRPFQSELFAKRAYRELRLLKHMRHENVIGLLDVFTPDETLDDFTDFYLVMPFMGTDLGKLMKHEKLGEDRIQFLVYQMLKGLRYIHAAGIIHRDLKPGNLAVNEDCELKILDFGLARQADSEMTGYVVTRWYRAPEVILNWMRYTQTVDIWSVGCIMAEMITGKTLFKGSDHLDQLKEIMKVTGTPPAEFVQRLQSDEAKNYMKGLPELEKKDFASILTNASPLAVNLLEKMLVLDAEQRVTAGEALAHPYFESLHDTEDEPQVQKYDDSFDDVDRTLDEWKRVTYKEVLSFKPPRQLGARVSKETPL
The target in series [10] is Dual specificity tyrosine-phosphorylation-regulated kinase 1B (Homo sapiens) (UniProt Q9Y463). Nature of the series: Inhibition of dyrk1 beta (unknown origin) at 0.3 uM.
Dual specificity tyrosine-phosphorylation-regulated kinase 1B (Homo sapiens), sequence (Q9Y463 whole entry, looked up): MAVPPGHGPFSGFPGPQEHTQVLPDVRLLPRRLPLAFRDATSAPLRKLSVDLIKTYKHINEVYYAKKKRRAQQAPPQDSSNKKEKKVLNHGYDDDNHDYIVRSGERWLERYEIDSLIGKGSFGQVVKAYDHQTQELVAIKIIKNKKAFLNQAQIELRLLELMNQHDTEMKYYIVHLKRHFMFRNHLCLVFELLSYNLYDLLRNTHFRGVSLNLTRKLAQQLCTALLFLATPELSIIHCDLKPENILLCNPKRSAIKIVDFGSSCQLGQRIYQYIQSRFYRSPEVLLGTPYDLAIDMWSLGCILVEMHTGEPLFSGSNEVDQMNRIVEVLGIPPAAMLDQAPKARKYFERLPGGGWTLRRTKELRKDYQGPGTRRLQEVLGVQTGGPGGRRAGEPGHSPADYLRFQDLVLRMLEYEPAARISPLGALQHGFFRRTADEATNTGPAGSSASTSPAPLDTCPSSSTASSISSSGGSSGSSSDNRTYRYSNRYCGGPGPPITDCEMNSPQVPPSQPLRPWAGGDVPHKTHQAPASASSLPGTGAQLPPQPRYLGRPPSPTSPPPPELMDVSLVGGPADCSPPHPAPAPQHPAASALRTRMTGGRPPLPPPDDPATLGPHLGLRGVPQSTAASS
Series [11] can be described thus: AUC (0 to infinity) in Sprague-Dawley rat at 10 mg/kg, po measured up to 24 hrs by LC-MS/MS analysis. It is filed as ADME, organism-based. Details: route oral, dose 10 mg/kg, time <=24. Particulars: in vivo.
A short description of series [12]: Cmax in Sprague-Dawley rat at 10 mg/kg, po measured up to 24 hrs by LC-MS/MS analysis. The format is ADME, organism-based. Also noted: route oral, dose 10 mg/kg, time <=24. Particulars: in vivo.
Series [13] in a line: Cmax in Sprague-Dawley rat at 1 mg/kg, iv measured up to 24 hrs by LC-MS/MS analysis. Details: route intravenous, dose 1 mg/kg, time <=24. Particulars: in vivo. The format is ADME, organism-based.
The nature of series [14]: Tmax in Sprague-Dawley rat at 10 mg/kg, po measured up to 24 hrs by LC-MS/MS analysis. It is filed as ADME, organism-based. Particulars: in vivo.
The nature of series [15]: MRT (0 to infinity) in Sprague-Dawley rat at 1 mg/kg, iv measured up to 24 hrs by LC-MS/MS analysis. It is filed as ADME, organism-based. Particulars: in vivo.
A short description of series [16]: Oral bioavailability in Sprague-Dawley rat at 10 mg/kg measured up to 24 hrs by LC-MS/MS analysis. It is filed as ADME, organism-based. The settings on record: in vivo.
The target of series [17] is Glycogen synthase kinase-3 beta (Mus musculus) (UniProt Q9WV60). In words: Inhibition of GSK3beta in mouse N2a cells overexpressing human tau assessed as decrease in tau phosphorylation at Ser396 residue at 0.9 uM measured after 6 hrs by Western blot assay. It is filed as cell-based. (In western blotting, separated proteins are transferred to a membrane and probed.)
Glycogen synthase kinase-3 beta (Mus musculus), sequence (Q9WV60 whole entry, looked up): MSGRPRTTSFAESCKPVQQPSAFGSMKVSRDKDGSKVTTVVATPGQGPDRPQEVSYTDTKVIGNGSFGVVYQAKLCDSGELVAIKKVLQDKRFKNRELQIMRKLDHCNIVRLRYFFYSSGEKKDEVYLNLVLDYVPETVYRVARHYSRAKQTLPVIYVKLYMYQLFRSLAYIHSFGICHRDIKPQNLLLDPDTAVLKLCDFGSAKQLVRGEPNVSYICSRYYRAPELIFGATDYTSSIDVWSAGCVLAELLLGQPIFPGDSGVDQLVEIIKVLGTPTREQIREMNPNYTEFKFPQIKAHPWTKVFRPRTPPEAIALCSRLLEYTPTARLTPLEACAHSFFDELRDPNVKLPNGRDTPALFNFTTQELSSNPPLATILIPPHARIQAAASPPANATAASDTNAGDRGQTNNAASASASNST

The subject of the next series is Mus musculus. In words: Improvement in learning and spatial memory in amyloid beta (1 to 42)-induced mouse model of Alzheimer's disease at 10 mg/kg/day, po pretreated with amyloid beta42 for 3 days followed by treatment with compound and measured after 9 days measured by Y-maze test. The format is functional, organism-based. Particulars: time 9.0 day.
Series [18] is described as follows: Toxicity in amyloid beta (1 to 42)-induced mouse model of Alzheimer's disease assessed as changes in body weight at 10 mg/kg/day, po measured after 9 days. It is filed as organism-based. Particulars: in vivo, 216 h, time 9 day.

Cyclin-dependent kinase 6 (Homo sapiens), sequence (Q00534 whole entry): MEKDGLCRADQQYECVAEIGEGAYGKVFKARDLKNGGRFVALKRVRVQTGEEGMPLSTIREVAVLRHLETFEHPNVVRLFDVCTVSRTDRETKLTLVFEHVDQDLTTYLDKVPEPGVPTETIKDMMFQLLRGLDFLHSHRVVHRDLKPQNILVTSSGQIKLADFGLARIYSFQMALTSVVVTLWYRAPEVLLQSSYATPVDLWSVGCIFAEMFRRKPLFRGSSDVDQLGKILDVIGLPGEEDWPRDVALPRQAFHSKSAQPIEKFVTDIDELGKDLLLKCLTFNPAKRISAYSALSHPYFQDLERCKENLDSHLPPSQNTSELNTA

As a reminder, the IC50 is the concentration needed to halve the response being measured. By AUC(0-inf) is commonly meant total exposure, with the tail of the curve extrapolated. Low values mean less exposure, high ones more exposure. One may read the Cmax as the highest concentration seen after dosing. For orientation: Tmax means the time at which the peak concentration occurs. For orientation: MRT inf means the average time that molecules of a dose stay in the body. In general, bioavailability refers to the share of a dose that reaches the circulation, judged against a reference dose that is usually intravenous. As for `O=C(Nc1cncc(OCC2CCN(Cc3ccc(F)cc3)CC2)c1)c1ccnc(NC(=O)C2CC2)c1`, on Acetylcholinesterase, the IC50 came to 11.8 nM. The inhibition result in [1], in series [2], in [3], in series [4], in series [5] and in series [6] was “inactive” each time. Also, the inhibition entry in series [7], in series [8], in series [9], in [10] and in series [17] was “inactive” in each case. The compound also gave an AUC(0-inf) in series [11] of 1260 ng·h/mL. The Cmax was determined as 159 ng/mL in [12] and 200 ng/mL in series [13]. In addition, the Tmax in series [14] was 1.9 h. The MRT inf in [15] was determined as 5.1 h. In series [16], the bioavailability amounted to 31%. In the series on Mus musculus, the result was Active. In addition, the Activity entry in series [18] was “Non-Toxic”.
